Reference: patent US10464952B2, “Beta-lactamase inhibitors” (priority 2015, dated 2019)
pIC50: −log10 of the molar value.

Experiments:
[1] = test system: P.aeruginosa expressing the Class B carbapenemase VIM-2; experiment: Broth microdilution MIC assay, potentiation of meropenem; type: cell-based; conditions: Fixed Mero 4 μg/mL; CAMHB, 16-20 hours at 37° C.
Excerpt: (§1) To determine the ability of test compounds to potentiate the inhibition of the growth of bacterial strains that produce beta-lactamase enzymes, classic cell based broth microdilution MIC assays were employed. Six bacteria strains producing beta-lactamase enzymes were used: E. coli expressing the Class A Extended Spectrum Beta-Lactamase (ESBL) CTX-M-15, E. cloacae expressing the Class C P99, K. pneumoniae expressing the Class A carbapenemase KPC-3, P.aeruginosa expressing the Class B carbapenemase VIM-2, K. pneumoniae expressing the class A carbapenemase KPC-2 and the class B carbapenemase VIM-4, and K. pneumoniae producing the Class D carbapenemase OXA-48. The assay was conducted in Cation Adjusted Mueller Hinton Broth (CAMHB, BD #212322, BD Diagnostic Systems, Sparks, Md.). Bacteria strains were grown for 3-5 hours in CAMHB broth. Test compounds were added to a microtiter plate in 2-fold serial dilutions in CAMHB in a final concentration range of 32 μg/mL to 0.015 μg/mL. An overlay of CAMHB containing a Beta-lactam was added to the compounds at a final static concentration of 4 μg/mL. […] In addition to the titration of test compounds the MICs of a panel of control beta-lactams is also tested to ensure the strains are behaving consistently from test to test. Once the test compound and antibiotics are added the plates can be inoculated according to CLSI broth microdilution method. After inoculation, the plates are incubated for 16-20 hours at 37° C., then the Minimal Inhibitory Concentration (MIC) of the test compound is determined visually.
(§2) Using the methodology described above, examples of the current invention were evaluated for their ability to inhibit the growth of β-lactamase-producing bacteria in the presence of a β-lactam antibiotic.
(§3) Representative results are shown in Table 3 where A represents an MIC of the fixed β-lactam antibiotic in the presence of >32 μg/mL of a β-lactamase inhibitor of exemplary compounds, B represents the MIC in the presence of between 8 and 32 μg/mL of a β-lactamase inhibitor of exemplary compounds, and C represents the MIC in the presence of ≤4 μg/mL of a β-lactamase inhibitor of exemplary compounds. NT=Not Tested.

[2] = test system: K. pneumoniae expressing the class A carbapenemase KPC-2 and the class B carbapenemase VIM-4; experiment: as above; type: cell-based; conditions: Fixed Mero 4 μg/mL; CAMHB, 16-20 hours at 37° C.
Excerpt: as §1, §2, §3

SHV-5 = target: T1, SHV-5 (Klebsiella pneumoniae, UniProt P0A3M1); experiment: β-lactamase enzyme inhibition assay, SHV-5 (cefotaxime substrate); type: biochemical
T1 construct: made in house; host or cells: E. coli BL21(DE3)
T1 sequence (P0A3M1 22-286): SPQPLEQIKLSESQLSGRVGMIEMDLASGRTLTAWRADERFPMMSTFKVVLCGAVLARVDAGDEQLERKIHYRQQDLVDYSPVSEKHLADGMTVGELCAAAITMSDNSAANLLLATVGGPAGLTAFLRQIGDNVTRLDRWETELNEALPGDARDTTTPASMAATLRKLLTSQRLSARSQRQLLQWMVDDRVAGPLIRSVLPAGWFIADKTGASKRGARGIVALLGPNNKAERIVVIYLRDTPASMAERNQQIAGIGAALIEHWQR
Method: (§4) For SHV-5, KPC-2, p99AmpC and OXA-4813-lactamases, E. coli BL21(DE3) bacterial cells carrying expression plasmids (expressed as native untagged proteins) for the individual β-lactamases were grown in 1L of Superbroth (Teknova Inc. Hollister, Calif.) supplemented with 100 μg/ml kanamycin selection and 1×5052 (0.5% glycerol, 0.05% glucose and 0.2% α-lactose) at 35° C. for 18-20 hours. Cells were harvested by centrifugation (4,000 ×g, 4° C., 20 min), re-suspended in 50 ml of 10 mM HEPES pH 7.5 (1/20 of the initial volume). The cells were lysed by sonication (5 pulses of 45 seconds) at 45 Won ice. The lysates were clarified by centrifugation at 10,000 ×g for 40 minutes at 4° C. Samples were diluted 5-fold in 50 mM sodium acetate pH 5.0, stored overnight at 4° C., after which they were centrifuged at 10,000 ×g for 30 minutes to clarify, and filtered through 0.45 μm filters. The samples were loaded onto a 5 ml Capto S sepharose cation exchange column (GE Healthcare) pre-equilibrated with 50 mM sodium acetate pH 5.0. The column was washed with 5 column volumes of 50 mM sodium acetate pH 5.0 to wash out unbound protein and a linear gradient of NaCl (0 to 500 mM) was used to elute the protein (over 16 CV) from the column. Fractions were assayed for β-lactamase activity using Centa (Calbiochem, Gibbstown, N.J.) or Nitrocefin (EMD Millipore chemicals, Darmstadt, Germany) as a reporter β-lactamase substrate for activity in the isolated fractions. Active fractions were pooled, concentrated and further purified by gel filtration chromatography on a Superdex 75 prep grade gel filtration column (GE Healthcare, Piscataway, N.J.) pre -equilibrated in 50 mM Hepes pH 7.5, 150 mM NaCl. Active fractions were pooled, concentrated, and quantitated by BCA protein determination (ThermoScientific, Rockford, Ill.), dialyzed into PBS and frozen at […] in 20% glycerol until use.
(§5) An equal volume of diluted enzyme stock was added, and the plates were incubated at 37° C. for 15 min. Nitrocefin was used as substrate for p99 AmpC, VIM-2 and OXA-48 and dispensed into each well at a final concentration of 100 μM. Absorbance at 486 nm was immediately monitored for 10 min using a Biotek Powerwave XS2 microplate spectrophotometer using the GEN5 software package (Biotek Instruments, Winooski Vt.). In an analogous fashion, imipenem was used as substrate for KPC-2 and Cefotaxime was used for SHV-5, while changes in absorbance upon hydrolysis of the β-lactam ring were monitored at 300 nm and 260 nm respectively in UV-transparent 96-well microtiter assay plates. Maximum rates of hydrolysis were compared to those in control wells (without inhibitors), and percentages of enzyme inhibition were calculated for each concentration of inhibitor. The concentration of inhibitor needed to reduce the initial rate of hydrolysis of substrate by 50% (IC50) was calculated as the residual activity of β-lactamase at 486 nm using GraFit version 7 kinetics software package (Erithacus Software, Surrey, UK).
(§6) Using the methodology described above, examples of the current invention were evaluated for their ability to inhibit β-lactamase enzymes from all four Ambler classifications (A through D). […] NT=Not tested.

p99 AmpC = target: T2, p99 AmpC (Enterobacter cloacae, UniProt P05364); experiment: β-lactamase enzyme inhibition assay, p99 AmpC (nitrocefin substrate); type: biochemical
T2 construct: made in house; host or cells: E. coli BL21(DE3)
T2 sequence (P05364 21-381): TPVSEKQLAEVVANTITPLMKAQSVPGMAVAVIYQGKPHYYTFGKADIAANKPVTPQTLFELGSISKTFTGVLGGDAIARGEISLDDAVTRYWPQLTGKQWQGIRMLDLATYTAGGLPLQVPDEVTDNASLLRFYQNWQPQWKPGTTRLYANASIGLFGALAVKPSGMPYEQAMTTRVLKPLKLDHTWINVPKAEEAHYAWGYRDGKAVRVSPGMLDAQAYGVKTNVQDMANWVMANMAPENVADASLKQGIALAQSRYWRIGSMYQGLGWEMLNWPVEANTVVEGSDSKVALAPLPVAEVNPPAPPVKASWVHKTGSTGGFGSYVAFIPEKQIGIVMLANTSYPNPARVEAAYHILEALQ
Method: as §4, §5, §6

OXA-48 = target: T3, OXA-48 (Klebsiella pneumoniae, UniProt Q6XEC0); experiment: β-lactamase enzyme inhibition assay, OXA-48 (nitrocefin substrate); type: biochemical
T3 construct: made in house; host or cells: E. coli BL21(DE3)
T3 sequence (Q6XEC0 23-265 limits assumed): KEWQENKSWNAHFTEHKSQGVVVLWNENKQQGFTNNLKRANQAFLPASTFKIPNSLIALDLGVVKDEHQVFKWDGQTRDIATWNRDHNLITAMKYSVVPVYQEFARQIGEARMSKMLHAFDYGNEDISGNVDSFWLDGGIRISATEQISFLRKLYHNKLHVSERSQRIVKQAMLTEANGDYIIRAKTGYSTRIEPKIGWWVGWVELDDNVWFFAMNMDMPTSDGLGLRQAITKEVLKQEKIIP
Method: as §4, §5, §6

[3] = test system: E. cloacae expressing the Class C P99; experiment: Broth microdilution MIC assay, potentiation of ceftazidime; type: cell-based; conditions: Fixed CAZ 4 μg/mL; CAMHB, 16-20 hours at 37° C.
Excerpt: as §1, §2, §3

[4] = test system: E. coli expressing the Class A Extended Spectrum Beta-Lactamase (ESBL) CTX-M-15; experiment: as above; type: cell-based; conditions: Fixed CAZ 4 μg/mL; CAMHB, 16-20 hours at 37° C.
Excerpt: as §1, §2, §3

KPC-2 = target: T4, KPC-2 (Klebsiella pneumoniae, UniProt Q9F663); experiment: β-lactamase enzyme inhibition assay, KPC-2 (imipenem substrate); type: biochemical
T4 construct: made in house; host or cells: E. coli BL21(DE3)
T4 sequence (Q9F663 25-293 limits assumed): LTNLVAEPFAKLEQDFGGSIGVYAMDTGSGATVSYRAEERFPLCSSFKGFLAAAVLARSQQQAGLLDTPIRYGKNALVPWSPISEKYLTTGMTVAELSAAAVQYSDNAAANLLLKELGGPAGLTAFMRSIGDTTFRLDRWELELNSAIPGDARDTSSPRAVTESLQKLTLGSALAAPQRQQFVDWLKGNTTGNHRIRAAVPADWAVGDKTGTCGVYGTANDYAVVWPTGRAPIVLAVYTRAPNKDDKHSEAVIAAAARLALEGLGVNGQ
Method: as §4, §5, §6

[5] = target: T5, VIM-2 metallo β-lactamase (Pseudomonas aeruginosa, UniProt Q9K2N0); experiment: β-lactamase enzyme inhibition assay, VIM-2 (nitrocefin substrate); type: biochemical; conditions: 15 min preincubation at 37° C.; nitrocefin 100 μM, 486 nm; read-out: IC50 VIM-2 (Class B)
T5 construct: made in house; host or cells: E. coli BL21(DE3)
Method: For VIM-2 metallo β-lactamase, the procedure was identical with the following exceptions, first the protein was not pH adjusted to pH 5 with 50 mM sodium acetate. Second, the chromatography step was changed to a 5 ml Q sepharose anion exchange column pre-equilibrated with 50 mM Hepes pH 7.5, and elution of the protein was achieved by a linear gradient of NaCl (0-600 mM). Finally, the VIM-2 purification required a second run (3rd step) on the Q sepharose anion exchange column to achieve acceptable purity (>90%).
as §5, §6

[6] = test system: K. pneumoniae producing the Class D carbapenemase OXA-48; experiment: Broth microdilution MIC assay, potentiation of meropenem; type: cell-based; conditions: Fixed Mero 4 μg/mL; CAMHB, 16-20 hours at 37° C.
Excerpt: as §1, §2

[7] = test system: K. pneumoniae expressing the Class A carbapenemase KPC-3; experiment: as above; type: cell-based; conditions: Fixed Mero 4 μg/mL; CAMHB, 16-20 hours at 37° C.
Excerpt: as §1, §2

CC(F)(F)CCC(=O)N[C@H]1Cc2cccc(C(=O)O)c2OB1O [Example 85, (R)-3-(4,4-Difluoro-pentanoylamino)-2-hydroxy-3,4-dihydro-2H -benzo[e][1,2]oxaborinine-8-carboxylic acid]
MIC (μg/mL) of exemplary compounds in presence of fixed β-lactams, P. aerug. 2775 VIM-2 [1]: C (C represents the MIC in the presence of ≤4 μg/mL of a β-lactamase inhibitor) | MIC (μg/mL) of exemplary compounds in presence of fixed β-lactams, K.P. A-1797 KPC-2 VIM-4 [2]: B (B represents the MIC in the presence of between 8 and 32 μg/mL of a β-lactamase inhibitor) | pIC50 (SHV-5): > 7.00 | pIC50 (p99 AmpC): > 7.00 | pIC50 (OXA-48): 5.00 to 6.00 | MIC (μg/mL) of exemplary compounds in presence of fixed β-lactams, E. cl. 144200 p99 AmpC [3]: C (C represents the MIC in the presence of ≤4 μg/mL of a β-lactamase inhibitor) | MIC (μg/mL) of exemplary compounds in presence of fixed β-lactams, E. coli ESBL4 CTX-M-15 [4]: C (C represents the MIC in the presence of ≤4 μg/mL of a β-lactamase inhibitor) | pIC50 (KPC-2): > 7.00 | pIC50 [5]: 5.00 to 6.00 | MIC (μg/mL) of exemplary compounds in presence of fixed β-lactams, K. P. 11978 OXA-48 [6]: C (C represents the MIC in the presence of ≤4 μg/mL of a β-lactamase inhibitor) | MIC (μg/mL) of exemplary compounds in presence of fixed β-lactams, K. P. 156319 KPC-3 [7]: C (C represents the MIC in the presence of ≤4 μg/mL of a β-lactamase inhibitor)
